Patent US8629157B2, “Pyrrolidine compounds which modulate the CB2 receptor” (Boehringer Ingelheim International GmbH, priority 2009, dated 2014)

The compounds below were run against human CB2R (Homo sapiens, UniProt P34972) (assay: CB2R mediated modulation of cAMP synthesis). Details: not given.
Assay type: cell-based
How it was run: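 CHO cells expressing human CB2R were treated 30 min at 37° C. with compounds in buffer containing 1 mM IBMX, 0.25% BSA and 10 uM forskolin; cAMP in lysates was measured by DiscoverX-XS kit.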

human CB2R, sequence (P34972 whole entry): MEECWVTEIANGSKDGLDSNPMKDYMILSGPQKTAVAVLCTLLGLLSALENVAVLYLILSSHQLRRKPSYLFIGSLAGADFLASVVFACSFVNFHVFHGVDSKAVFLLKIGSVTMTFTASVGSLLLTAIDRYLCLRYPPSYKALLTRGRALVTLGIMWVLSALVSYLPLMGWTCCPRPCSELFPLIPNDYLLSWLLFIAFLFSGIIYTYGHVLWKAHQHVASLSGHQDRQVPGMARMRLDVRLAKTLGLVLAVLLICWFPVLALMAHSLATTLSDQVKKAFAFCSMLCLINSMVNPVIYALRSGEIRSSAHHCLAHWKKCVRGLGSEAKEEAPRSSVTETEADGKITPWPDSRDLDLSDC

**Q.** With `CC(C)(C)Cc1cc(NC(=O)[C@@H]2CCCN2C2CCCC2)on1` [(S)-1-Cyclopentyl-pyrrolidine-2-carboxylic acid [3-(2,2-dimethyl-propyl)-isoxazol-5-yl]-amide] as the compound, how does the EC50 read?
**A.** 113 nM

**Q.** How did the EC50 turn out when `CC(C)(C)c1cc(NC(=O)[C@@H]2CCCN2C2CC2)on1` [(S)-1-Cyclopropyl-pyrrolidine-2-carboxylic acid (3-tert-butyl-isoxazol-5-yl)-amide] was run?
**A.** 3.19 nM

**Q.** `CC(C)(C)c1cc(NC(=O)[C@@H]2CCCN2CC2CC2)on1` [(S)-1-Cyclopropylmethyl-pyrrolidine-2-carboxylic acid (3-tert-butyl-isoxazol-5-yl)-amide] was tested. Which EC50 did it give?
**A.** 11.4 nM

**Q.** Which EC50 does the source give for `CC(C)(C)c1nnc(NC(=O)[C@@H]2CCCN2CC2CC2)s1` [(S)-1-Cyclopropylmethyl-pyrrolidine-2-carboxylic acid (5-tert-butyl-1,3,4-thiadiazol-2-yl)-amide] here?
**A.** 340 nM

**Q.** For `CC(C)(C)Cc1cc(NC(=O)[C@@H]2CCCN2CC2CC2)on1` [(S)-1-Cyclopropylmethyl-pyrrolidine-2-carboxylic acid [3-(2,2-dimethyl-propyl)-isoxazol-5-yl]-amide], which EC50 is on record?
**A.** 22.3 nM

**Q.** Which EC50 does the source give for `CC(C)N1CCC[C@H]1C(=O)Nc1cc(C(C)(C)C)no1` [(S)-1-Isopropyl-pyrrolidine-2-carboxylic acid (3-tert-butyl-isoxazol-5-yl)-amide] here?
**A.** 163 nM

**Q.** How did the EC50 turn out when `CC(C)(C)c1cc(NC(=O)[C@]2(C)CCCN2c2ccc(C(F)(F)F)cc2)no1` [(S)-2-Methyl-1-(4-trifluoromethyl-phenyl)-pyrrolidine-2-carboxylic acid (5-tert-butyl-isoxazol-3-yl)-amide] was run?
**A.** 0.199 nM

**Q.** With `C[C@@]1(C(=O)Nc2nc(-c3ccccc3)ns2)CCCN1c1ccc(C(F)(F)F)cn1` [(S)-2-Methyl-1-(5-trifluoromethyl-pyridin-2-yl)-pyrrolidine-2-carboxylic acid (3-phenyl-1,2,4-thiadiazol-5-yl)-amide] as the compound, how does the EC50 read?
**A.** 0.136 nM

**Q.** `CC(C)(C)c1cc(NC(=O)[C@]2(C)CCCN2c2ccc(C(F)(F)F)cn2)no1` [(S)-2-Methyl-1-(5-trifluoromethyl-pyridin-2-yl)-pyrrolidine-2-carboxylic acid (5-tert-butyl-isoxazol-3-yl)-amide] was tested. Which EC50 did it give?
**A.** 0.015 nM

**Q.** Which EC50 does the source give for `C[C@@]1(C(=O)Nc2ccc(C(F)(F)F)cn2)CCCN1c1ccc(C(F)(F)F)cn1` [(S)-2-Methyl-1-(5-trifluoromethyl-pyridin-2-yl)-pyrrolidine-2-carboxylic acid (5-trifluoromethyl-pyridin-2-yl)-amide] here?
**A.** 0.634 nM

**Q.** Which EC50 does the source give for `CC(C)(C)c1cc(NC(=O)[C@@H]2CCC(=O)N2c2cc(F)c(F)c(F)c2)on1` [(S)-5-Oxo-1-(3,4,5-trifluoro-phenyl)-pyrrolidine-2-carboxylic acid (3-tert-butyl-isoxazol-5-yl)-amide] here?
**A.** 80 nM

**Q.** With `CC(C)(C)c1cc(NC(=O)[C@@H]2CCC(=O)N2c2cc(F)c(F)c(F)c2)no1` [(S)-5-Oxo-1-(3,4,5-trifluoro-phenyl)-pyrrolidine-2-carboxylic acid (5-tert-butyl-isoxazol-3-yl)-amide] as the compound, how does the EC50 read?
**A.** 74.7 nM

**Q.** `CC(C)(C)c1cc(NC(=O)[C@@H]2CCC(=O)N2c2ccc(OC(F)(F)F)cc2)on1` [(S)-5-Oxo-1-(4-trifluoromethoxy-phenyl)-pyrrolidine-2-carboxylic acid (3-tert-butyl-isoxazol-5-yl)-amide] was tested. Which EC50 did it give?
**A.** 34.5 nM

**Q.** With `CC(C)(C)c1cc(NC(=O)[C@@H]2CCC(=O)N2c2ccc(OC(F)(F)F)cc2)no1` [(S)-5-Oxo-1-(4-trifluoromethoxy-phenyl)-pyrrolidine-2-carboxylic acid (5-tert-butyl-isoxazol-3-yl)-amide] as the compound, how does the EC50 read?
**A.** 132 nM

**Q.** With `CC(C)c1cc(NC(=O)[C@@H]2CCC(=O)N2c2ccc(C(F)(F)F)cc2)on1` [(S)-5-Oxo-1-(4-trifluoromethyl-phenyl)-pyrrolidine-2-carboxylic acid (3-isopropyl-isoxazol-5-yl)-amide] as the compound, how does the EC50 read?
**A.** 41.8 nM

**Q.** How did the EC50 turn out when `CCC(C)c1cc(NC(=O)[C@@H]2CCC(=O)N2c2ccc(C(F)(F)F)cc2)on1` (stereo partly drawn) [(S)-5-Oxo-1-(4-trifluoromethyl-phenyl)-pyrrolidine-2-carboxylic acid (3-sec-butyl-isoxazol-5-yl)-amide] was run?
**A.** 40.9 nM

**Q.** How did the EC50 turn out when `CC(C)(C)c1cc(NC(=O)[C@@H]2CCC(=O)N2c2ccc(C(F)(F)F)cc2)sn1` [(S)-5-Oxo-1-(4-trifluoromethyl-phenyl)-pyrrolidine-2-carboxylic acid (3-tert-butyl-isothiazol-5-yl)-amide] was run?
**A.** 112 nM

**Q.** `CC(C)(C)c1cc(NC(=O)[C@@H]2CCC(=O)N2c2ccc(C(F)(F)F)cc2)no1` [(S)-5-Oxo-1-(4-trifluoromethyl-phenyl)-pyrrolidine-2-carboxylic acid (5-tert-butyl-isoxazol-3-yl)-amide] was tested. Which EC50 did it give?
**A.** 5.76 nM

**Q.** How did the EC50 turn out when `CC(C)(CO)c1cc(NC(=O)[C@@H]2CCC(=O)N2c2ccc(C(F)(F)F)cc2)no1` [(S)-5-Oxo-1-(4-trifluoromethyl-phenyl)-pyrrolidine-2-carboxylic acid [5-(2-hydroxy-1,1-dimethyl-ethyl)-isoxazol-3-yl]-amide] was run?
**A.** 80.8 nM

**Q.** How did the EC50 turn out when `COCC(C)(C)c1cc(NC(=O)[C@@H]2CCC(=O)N2c2ccc(C(F)(F)F)cc2)no1` [(S)-5-Oxo-1-(4-trifluoromethyl-phenyl)-pyrrolidine-2-carboxylic acid [5-(2-methoxy-1,1-dimethyl-ethyl)-isoxazol-3-yl]-amide] was run?
**A.** 15.2 nM

**Q.** How did the EC50 turn out when `C=Cc1ccc(N2C(=O)CC[C@H]2C(=O)Nc2cc(C(C)(C)C)no2)cc1` [(S)-5-Oxo-1-(4-vinyl-phenyl)-pyrrolidine-2-carboxylic acid (3-tert-butyl-isoxazol-5-yl)-amide] was run?
**A.** 20.3 nM

**Q.** How did the EC50 turn out when `C=Cc1ccc(N2C(=O)CC[C@H]2C(=O)Nc2cc(C(C)(C)C)on2)cc1` [(S)-5-Oxo-1-(4-vinyl-phenyl)-pyrrolidine-2-carboxylic acid (5-tert-butyl-isoxazol-3-yl)-amide] was run?
**A.** 70 nM

**Q.** With `Cc1ccc(N2C(=O)CC[C@H]2C(=O)Nc2cc(C(C)(C)C)no2)cc1` [(S)-5-Oxo-1-p-tolyl-pyrrolidine-2-carboxylic acid (3-tert-butyl-isoxazol-5-yl)-amide] as the compound, how does the EC50 read?
**A.** 163 nM

**Q.** `CC(C)(C)c1cc(NC(=O)[C@@H]2CCC(=O)N2c2ccccn2)on1` [(S)-5-Oxo-1-pyridin-2-yl-pyrrolidine-2-carboxylic acid (3-tert-butyl-isoxazol-5-yl)-amide] was tested. Which EC50 did it give?
**A.** 136 nM

**Q.** With `Cc1ccc(N2C(=O)CC[C@H]2C(=O)Nc2cc(C(C)(C)C)no2)cc1Cl` [(S)-l-(3-Chloro-4-methyl-phenyl)-5-oxo-pyrrolidine-2-carboxylic acid (3-tert-butyl-isoxazol-5-yl)-amide] as the compound, how does the EC50 read?
**A.** 77.4 nM

**Q.** How did the EC50 turn out when `COCC(C)(C)c1cc(NC(=O)[C@@H]2CCC(=O)N2c2ccc(Cl)cc2)on1` [(S)-l-(4-Chloro-phenyl)-5-oxo-pyrrolidine-2-carboxylic acid [3-(2-methoxy-1,1-dimethyl-ethyl)-isoxazol-5-yl]-amide] was run?
**A.** 48.7 nM

**Q.** With `COCC(C)(C)c1cc(NC(=O)[C@@H]2CCC(=O)N2c2ccc(Cl)cc2)no1` [(S)-l-(4-Chloro-phenyl)-5-oxo-pyrrolidine-2-carboxylic acid [5-(2-methoxy-1,1-dimethyl-ethyl)-isoxazol-3-yl]-amide] as the compound, how does the EC50 read?
**A.** 86.1 nM

**Q.** `CCCN1CCC[C@H]1C(=O)Nc1nc(C(C)(C)C)cs1` [Example 187, (S)-1-Propyl-pyrrolidine-2-carboxylic acid (4-tert-butyl-thiazol-2-yl)-amide] was tested. Which EC50 did it give?
**A.** 159 nM

**Q.** Which EC50 does the source give for `CC(C)(C)OC(=O)CN1CCC[C@H]1C(=O)Nc1cc(C(C)(C)C)no1` [[(S)-2-(3-tert-Butyl-isoxazol-5-ylcarbamoyl)-pyrrolidin-1-yl]-acetic acid tert-butyl ester] here?
**A.** 0.1 nM

Same assay, conditions: CHO cells expressing human CB2R; inhibition of forskolin-stimulated cAMP synthesis; mean; read-out: CB2 CAMP @ EC50 nM (mean)

**Q.** With `CC(C)(C)c1nnc(NC(=O)[C@@H]2CCCN2C2CC2)s1` [(S)-1-Cyclopropyl-pyrrolidine-2-carboxylic acid (5-tert-butyl-1,3,4-thiadiazol-2-yl)-amide] as the compound, how does the EC50 read?
**A.** 109 nM

**Q.** Which EC50 does the source give for `CC(C)(C)c1cc(NC(=O)[C@@H]2CCCN2c2ncccn2)on1` [(S)-1-Pyrimidin-2-yl-pyrrolidine-2-carboxylic acid (3-tert-butyl-isoxazol-5-yl)-amide] here?
**A.** 109 nM

**Q.** With `COc1ccc(-c2nsc(NC(=O)[C@@H]3CCC(=O)N3c3ccc(C(F)(F)F)cc3)n2)cc1` [(S)-5-Oxo-1-(4-trifluoromethyl-phenyl)-pyrrolidine-2-carboxylic acid [3-(4-methoxy-phenyl)-1,2,4-thiadiazol-5-yl]-amide] as the compound, how does the EC50 read?
**A.** 178 nM

**Q.** Which EC50 does the source give for `Cc1ccc(N2C(=O)CC[C@H]2C(=O)Nc2cc(C(C)(C)C)on2)cc1Cl` [(S)-l-(3-Chloro-4-methyl-phenyl)-5-oxo-pyrrolidine-2-carboxylic acid (5-tert-butyl-isoxazol-3-yl)-amide] here?
**A.** 333 nM
